The results in this text go back to patent US20080113994A1, “Annelated Quinoline Derivatives As Pesticide” (priority 2004, published 2008).

The test system of experiment [1] is larvae of the army worm (Spodoptera frugiperda). The experiment in a line: Spodoptera frugiperda test (spray treatment). In kind it is in vivo. The conditions noted are these: 500 g/ha, sprayed maize leaf disks. From the text:
Spodoptera frugiperda Test (Spray Treatment)

Experiment [2] concerns larvae of the mustard beetle (Phaedon cochleariae). In words: Phaedon larvae test (spray treatment). To be noted: sprayed Chinese cabbage leaf disks.
Experiment [3] deals with eggs of the cotton bollworm (Heliothis virescens). The experiment in a line: Heliothis virescens egg test (spray treatment). In kind it is in vivo. To be noted: 500 g/ha, sprayed soybean leaves, 100% = none of the larvae hatched. From the text:
Heliothis virescens Egg Test (Spray Treatment)

In the case of `COc1cccc(C2C3=C(COC3=O)Nc3cc4c(cc32)OCO4)c1` (stereo not drawn) [Example 1, 6,7-(methylenedioxy)-9-(3-methoxyphenyl)-4,9-dihydro-3H-furo[3,4-b]quinolin-1-one], the “Kill rate in % after 7^d” value in experiment [1] turned out to be 100%. As for `COc1ccc2c(c1)C(c1cc(OC)c(OC)c(OC)c1)C1=C(COC1=O)N2` (stereo not drawn) [Example 8, 7-methoxy-9-(3,4,5-trimethoxyphenyl)-4,9-dihydro-3H-furo[3,4-b]quinolin-1-one], the “Kill rate in % after 7^d” value in experiment [2] (500 g/ha) is given as 100%.

Consider `O=C1OCC2=C1C(c1cc(Cl)cc(Cl)c1)c1cc3c(cc1N2)OCO3` (stereo not drawn) [Example 12], for which the “Kill rate in % after 7^d” value in experiment [3] and in experiment [2] (500 g/ha) was 100% throughout.

Take `O=C1OCC2=C1C(c1cc(F)cc(F)c1)c1cc3c(cc1N2)OCO3` (stereo not drawn) [Example 16]: the “Kill rate in % after 7^d” value came out at 97% in experiment [3] and 100% in experiment [1].

For `O=C1OCC2=C1C(c1ccccc1)c1cc3c(cc1N2)OCO3` (stereo not drawn) [Example 17], in experiment [1], the “Kill rate in % after 7^d” value worked out at 100%. Same read-out and setting: to `Cc1cccc(C2C3=C(COC3=O)Nc3cc4c(cc32)OCO4)c1` (stereo not drawn) [Example 19] belongs 100%.

For `Cc1cc(C)cc(C2C3=C(COC3=O)Nc3cc4c(cc32)OCO4)c1` (stereo not drawn) [Example 23], the “Kill rate in % after 7^d” value in experiment [3] is on record as 98%; in experiment [1], 100%. As for `CC1(C)CC(=O)C2=C(C1)Nc1cc3c(cc1C2c1cccc(Cl)c1)OCO3` (stereo not drawn) [Example 31], the “Kill rate in % after 7^d” value in experiment [3] is 83%. Turning to `CC1CC2=C(C(=O)O1)C(c1cccc(Cl)c1)c1cc3c(cc1N2)OCO3` (stereo not drawn) [Example 35], the “Kill rate in % after 7^d” value in experiment [1] and in experiment [2] (500 g/ha) was 100% each time.

Turning to `CN1OC(C)(C)C2=C(C1=O)C(c1cccc(Cl)c1)c1cc3c(cc1N2)OCO3` (stereo not drawn) [Example 36], the “Kill rate in % after 7^d” value in experiment [3] came out at 80%. Consider `COc1cc(C2C3=C(COC3=O)Nc3cc4c(cc32)OCO4)cc(OC)c1OC` (stereo not drawn) [Example 61], for which the “Kill rate in % after 7^d” value in experiment [2] (500 g/ha) came out at 100%. With `COc1cc(C2C3=C(COC3=O)N(C)c3cc4c(cc32)OCO4)cc(OC)c1OC` (stereo not drawn) [Example 69], the “Kill rate in % after 7^d” value in experiment [2] (500 g/ha) is 100%. For `COc1cc(C2C3=C(COC3=O)Nc3cc4c(cc32)OC(F)(F)O4)cc(OC)c1OC` (stereo not drawn) [Example 70], the “Kill rate in % after 7^d” value in experiment [2] (500 g/ha) was found to be 100%. Turning to `COc1cc(OC)cc(C2C3=C(COC3=O)Nc3cc(OC)c(OC)cc32)c1` (stereo not drawn) [Example 73], the “Kill rate in % after 7^d” value in experiment [1] and in experiment [2] (500 g/ha) was 83% throughout. With `COc1cc(OC)cc(C2C3=C(COC3=O)Nc3cc4c(cc32)OCCO4)c1` (stereo not drawn) [Example 74], the “Kill rate in % after 7^d” value in experiment [1] was found to be 100%. In the case of `COc1cc(OC)cc(C2C3=C(COC3=O)Nc3cc4c(cc32)OCCCO4)c1` (stereo not drawn) [Example 75], the “Kill rate in % after 7^d” value in experiment [1] and in experiment [2] (500 g/ha) was 100% each time. As to `COc1cc(OC)cc(C2C3=C(COC3=O)Nc3cc(SC)ccc32)c1` (stereo not drawn) [Example 84], the “Kill rate in % after 7^d” value in experiment [1] came to 100%. As for `COc1cc(OC)cc(C2C3=C(COC3=O)Nc3ccc(OC)cc32)c1` (stereo not drawn) [Example 86], the “Kill rate in % after 7^d” value in experiment [1] and in experiment [2] (500 g/ha) was 100% each time. Regarding `COc1cc(OC)cc(C2C3=C(COC3=O)Nc3c2ccc(OC)c3OC)c1` (stereo not drawn) [Example 90], the “Kill rate in % after 7^d” value in experiment [1] and in experiment [2] (500 g/ha) was 100% each time. Regarding `COc1cc(OC)cc(C2C3=C(COC3=O)Nc3cc(OC)c(C)cc32)c1` (stereo not drawn) [Example 93], the “Kill rate in % after 7^d” value in experiment [1] and in experiment [2] (500 g/ha) was 100% in each case. For `CCOc1cc2c(cc1C)C(c1cc(OC)cc(OC)c1)C1=C(COC1=O)N2` (stereo not drawn) [Example 99], in experiment [2] (500 g/ha), the “Kill rate in % after 7^d” value is 83%. As for `COc1cc(OC)cc(C2C3=C(COC3=O)Nc3cc(OC)cc(OC)c32)c1` (stereo not drawn) [Example 100], the “Kill rate in % after 7^d” value in experiment [1] is listed as 100%; in experiment [2] (100 g/ha), 83%. As to `CCOc1cccc(C2C3=C(COC3=O)Nc3cc(OCC)ccc32)c1` (stereo not drawn) [Example 103], the “Kill rate in % after 7^d” value in experiment [1] and in experiment [2] (500 g/ha) was 100% throughout. As for `COc1cc(OC)cc(C2(C)C3=C(COC3=O)Nc3cc4c(cc32)OCO4)c1` (stereo not drawn) [Example 107], the “Kill rate in % after 7^d” value in experiment [3] amounted to 90%. As for `CCOc1cccc(C2C3=C(COC3=O)Nc3cc4c(cc32)OCO4)c1` (stereo not drawn) [Example 111], the “Kill rate in % after 7^d” value in experiment [1] came to 100%. For the compound `COc1cc(C2C3=C(COC3=O)Nc3cc4c(cc32)OCO4)cc(Br)c1OC` (stereo not drawn) [Example 114], the “Kill rate in % after 7^d” value in experiment [2] (500 g/ha) is 83%. Regarding `O=C1OCC2=C1C(c1cncc(Br)c1)c1cc3c(cc1N2)OCO3` (stereo not drawn) [Example 116], in experiment [1], the “Kill rate in % after 7^d” value stood at 100%. Consider `O=C1OCC2=C1C(c1cc(Br)cc(Br)c1)c1cc3c(cc1N2)OCO3` (stereo not drawn) [Example 123], for which the “Kill rate in % after 7^d” value in experiment [3] is reported as 95%; in experiment [1], 100%. As for `COc1c(Cl)cc(C2C3=C(COC3=O)Nc3cc4c(cc32)OCO4)cc1Cl` (stereo not drawn) [Example 128], the “Kill rate in % after 7^d” value was 83% in experiment [1] and 100% in experiment [2] (500 g/ha). On to `O=C1OCC2=C1C(c1ccc(F)c(Br)c1)c1cc3c(cc1N2)OCO3` (stereo not drawn) [Example 129], for which the “Kill rate in % after 7^d” value in experiment [3] and in experiment [1] was 100% each time. `COc1cc(C2C3=C(COC3=O)Nc3cc4c(cc32)OCO4)cc(O)c1OC` (stereo not drawn) [Example 130]: in experiment [2] (500 g/ha), the “Kill rate in % after 7^d” value is on record as 100%. For the compound `N#CCOc1cccc(C2C3=C(COC3=O)Nc3cc4c(cc32)OCO4)c1` (stereo not drawn) [Example 136], the figures for the “Kill rate in % after 7^d” value in experiment [1] and in experiment [2] (500 g/ha) were 100% and 83%, respectively. In the case of `COc1cc(C2C3=C(COC3=O)Nc3cc4c(cc32)OCO4)ccc1Cl` (stereo not drawn) [Example 139], the “Kill rate in % after 7^d” value in experiment [1] amounted to 100%; in experiment [2] (500 g/ha), 83%. For `O=C1OCC2=C1C(c1ccc(F)c(Cl)c1)c1cc3c(cc1N2)OCO3` (stereo not drawn) [Example 140], the “Kill rate in % after 7^d” value in experiment [1] is 100%. For `COc1ccc(C2C3=C(COC3=O)Nc3cc4c(cc32)OCO4)cn1` (stereo not drawn) [Example 142], the “Kill rate in % after 7^d” value in experiment [1] and in experiment [2] (500 g/ha) was 100% in each case. Turning to `O=C1OCC2=C1C(c1cc(Br)c3c(c1)OCO3)c1cc3c(cc1N2)OCO3` (stereo not drawn) [Example 145], the results for the “Kill rate in % after 7^d” value in experiment [1] and in experiment [2] (500 g/ha) were 100% and 83%, respectively. As for `COc1cc(C2C3=C(COC3=O)Nc3cc4c(cc32)OCO4)ccc1F` (stereo not drawn) [Example 148], the “Kill rate in % after 7^d” value in experiment [1] is 100%. For the compound `O=C1OCC2=C1C(c1cccc(OCc3ccc(Cl)cc3)c1)c1cc3c(cc1N2)OCO3` (stereo not drawn) [Example 149], the “Kill rate in % after 7^d” value in experiment [3] is listed as 85%. The same measure, in the same setting: the figure for `COc1cc(OC)c(C2C3=C(COC3=O)Nc3cc4c(cc32)OCO4)cn1` (stereo not drawn) [Example 150] is 100%. Consider `O=C1OCC2=C1C(c1cc(F)c(F)c(F)c1)c1cc3c(cc1N2)OCO3` (stereo not drawn) [Example 153], for which, in experiment [1], the “Kill rate in % after 7^d” value is 100%. As for `COc1cc2c(c(C3C4=C(COC4=O)Nc4cc5c(cc43)OCO5)c1)OCO2` (stereo not drawn) [Example 155], in experiment [2] (500 g/ha), the “Kill rate in % after 7^d” value is on record as 100%.

Regarding `O=C1OCC2=C1C(c1cccc(OC(F)(F)C(F)F)c1)c1cc3c(cc1N2)OCO3` (stereo not drawn) [Example 157], the “Kill rate in % after 7^d” value in experiment [1] and in experiment [2] (500 g/ha) was 100% in each case. With `O=C1OCC2=C1C(c1cccc(OCCO)c1)c1cc3c(cc1N2)OCO3` (stereo not drawn) [Example 158], the “Kill rate in % after 7^d” value in experiment [1] is on record as 100%. In the case of `COc1cc(OC)cc(C2C3=C(COC3=O)Nc3ccc(OC)cc32)c1` (stereo not drawn) [Example 162], the “Kill rate in % after 7^d” value in experiment [3] came out at 100%.
